In ChEMBL document CHEMBL1126356, “Structure-activity relationships of the pyridazinone series of 5-lipoxygenase inhibitors” (Bioorg Med Chem Lett, 1992):
Activity calls are given as the source filed them. The rule behind the calls is not given here.

Columns and labels:
[1] = molecular target: T1, Polyunsaturated fatty acid 5-lipoxygenase (Homo sapiens, UniProt P09917); assay: Inhibitory Activity against 5-Lipoxygenase was determined; IA=Inactive at concentrations less than 32 uM
T1 sequence (P09917 whole entry): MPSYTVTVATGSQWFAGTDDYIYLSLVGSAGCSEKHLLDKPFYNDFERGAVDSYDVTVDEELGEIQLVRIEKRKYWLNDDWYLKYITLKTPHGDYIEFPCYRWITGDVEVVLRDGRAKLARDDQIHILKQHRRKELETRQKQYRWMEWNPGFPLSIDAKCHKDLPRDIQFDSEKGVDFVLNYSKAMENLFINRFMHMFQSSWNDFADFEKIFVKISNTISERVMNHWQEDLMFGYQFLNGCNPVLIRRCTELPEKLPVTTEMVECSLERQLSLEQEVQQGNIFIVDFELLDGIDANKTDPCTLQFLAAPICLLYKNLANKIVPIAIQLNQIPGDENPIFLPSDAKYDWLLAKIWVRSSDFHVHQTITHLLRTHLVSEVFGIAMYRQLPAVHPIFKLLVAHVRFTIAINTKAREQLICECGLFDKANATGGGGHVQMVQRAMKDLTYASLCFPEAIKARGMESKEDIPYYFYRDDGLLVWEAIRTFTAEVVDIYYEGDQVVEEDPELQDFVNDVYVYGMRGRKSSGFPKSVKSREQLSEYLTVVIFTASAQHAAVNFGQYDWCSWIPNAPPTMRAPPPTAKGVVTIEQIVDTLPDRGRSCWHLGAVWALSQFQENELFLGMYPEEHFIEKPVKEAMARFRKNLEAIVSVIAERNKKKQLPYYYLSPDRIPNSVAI

[2] = molecular target: T1, Polyunsaturated fatty acid 5-lipoxygenase; assay: Inhibitory activity against 5-lipoxygenase.
[3] = molecular target: T1, Polyunsaturated fatty acid 5-lipoxygenase; assay: Inhibitory Activity against 5-Lipoxygenase was determined; IA=Inactive
[4] = molecular target: T2, Polyunsaturated fatty acid 5-lipoxygenase (Homo sapiens) (UniProt P09917); assay: In vitro inhibition of 5-Lipoxygenase; Inactive.
T2 sequence (whole entry): T1 sequence (P09917 whole entry)

[5] = molecular target: T2, Polyunsaturated fatty acid 5-lipoxygenase (Homo sapiens); assay: Inhibitory Activity against 5-Lipoxygenase at 30 uM was determined; Weakly active
Rattus norvegicus = assay: Compound was tested for in vivo potency in the rat anaphylaxis assay; type: functional
[6] = molecular target: T1, Polyunsaturated fatty acid 5-lipoxygenase; assay: Inhibitory Activity against 5-Lipoxygenase was determined; NA=No significant inhibitory activity up to 300 uM
[7] = molecular target: T2, Polyunsaturated fatty acid 5-lipoxygenase (Homo sapiens); assay: Inhibitory Activity against 5-Lipoxygenase at concentration 32 uM was determined

| SMILES | IC50 [2] | Activity [4] | also measured |
| --- | --- | --- | --- |
| O=C1CCCCN(c2ccccc2)N1 |  |  | IC50 [1]: Not Active |
| O=C1CCN(c2ccc(Cl)cc2)N1 | 1.1 µM |  |  |
| Cc1cccc(N2CCCC(=O)N2)c1 | 3.4 µM |  |  |
| O=C1CCN(c2cccc(Cl)c2)N1 | 0.73 µM |  |  |
| CCCC(=O)NNc1ccccc1 | 52 µM |  |  |
| CCOC(=O)CCCCCN(N)c1ccccc1 |  |  | IC50 [3]: Not Active |
| O=C1CCCN(C2CCCCC2)N1 |  | inactive |  |
| Cc1ccccc1N1CCC(=O)N1 | 8.2 µM |  |  |
| CCCCCCCCCCCCN1CCCC(=O)N1 | 6 µM |  |  |
| c1ccc(N2CCCCN2)cc1 |  | inactive |  |
| CCc1cccc(N2CCCC(=O)N2)c1 | 3 µM |  |  |
| CCc1ccccc1N1CCCC(=O)N1 | 39 µM |  |  |
| Cc1ccccc1N1CCCC(=O)N1 | 57 µM |  |  |
| CCc1ccc(N2CCCC(=O)N2)cc1 | 125 µM |  |  |
| Cc1cccc(N2CCC(=O)N2)c1 | 1.3 µM |  |  |
| O=C1CCCN(c2ccccc2)C1 |  | inactive |  |
| Cc1ccc(N2CCC(=O)N2)cc1 | 3.5 µM |  |  |
| O=C1CCCC(c2ccccc2)=N1 |  | inactive |  |
| O=C1CCCN(c2cccc(Cl)c2)N1 | 2.5 µM |  |  |
| CCC(=O)N1C(=O)CCCN1c1ccccc1 |  | inactive |  |
| O=C1CCC(=O)N(c2ccccc2)N1 |  |  | inhibition [5]: 24% |
| O=C1CCCN(c2cccc(CO)c2)N1 | 53 µM |  |  |
| N#Cc1cccc(N2CCCC(=O)N2)c1 | 9.3 µM |  | ED50 (Rattus norvegicus): 23 mg/kg |
| CC(=O)c1cccc(N2CCCC(=O)N2)c1 | 19 µM |  |  |
| COc1ccccc1N1CCCC(=O)N1 | 204 µM |  |  |
| O=C1CCCN(c2cccc(C(=O)O)c2)N1 |  |  | IC50 [6]: Not Active |
| CC(C)(C)C(=O)c1cccc(N2CCCC(=O)N2)c1 | 15 µM |  |  |
| O=C1CCCN(Cc2ccccc2)N1 |  | inactive |  |

| SMILES | IC50 [2] | Activity [4] | also measured |
| --- | --- | --- | --- |
| CCCCCCCCN1CCCC(=O)N1 | 23 µM |  |  |
| O=C1CCCN(c2cccc(F)c2)N1 | 5.5 µM |  |  |
| O=C1CCC(c2ccccc2)NN1 (stereo unspecified) |  | inactive |  |
| O=C1CCCC(c2ccccc2)N1 (stereo unspecified) |  | inactive |  |
| Cc1ccc(N2CCCC(=O)N2)cc1 | 277 µM |  |  |
| CCOC(=O)CCCCN(N)c1ccccc1 |  |  | IC50 [3]: Not Active |
| O=C1CCN(c2ccccc2Cl)N1 | 3.7 µM |  |  |
| O=C1CCC(c2ccccc2)=NN1 |  | inactive |  |
| O=C1CCCN(c2cccc(Br)c2)N1 | 1.8 µM |  |  |
| COc1ccc(N2CCCC(=O)N2)cc1 | 156 µM |  |  |
| O=C1CCCN(c2ccccc2)N1 | 3.8 µM |  |  |
| CC1=NN(c2ccccc2)C(=O)CC1 |  | inactive |  |
| CCCCCN1CCCC(=O)N1 |  | inactive |  |
| O=C1CCCN(c2cccc(C(F)(F)F)c2)N1 | 5.2 µM |  |  |
| CC(=O)NNc1ccccc1 | 65 µM |  |  |
| CN1C(=O)CCCN1c1ccccc1 |  | inactive |  |
| O=C1CCCN(c2ccccc2Cl)N1 | 99 µM |  |  |
| O=C1CCCN(C(=O)c2ccccc2)N1 |  | inactive |  |
| CC1CCC(=O)N(c2ccccc2)N1 (stereo unspecified) |  | inactive |  |
| C1=NN(c2ccccc2)CCC1 |  | inactive |  |
| O=C1CCCN(c2ccc(Cl)cc2)N1 | 79 µM |  |  |
| O=C1CCCN(c2ccccc2)N1C(=O)c1ccccc1 |  | inactive |  |
| O=C1CCCNN1 |  | inactive |  |
| CCOC(=O)c1cccc(N2CCCC(=O)N2)c1 | 5.6 µM |  |  |
| O=C1CCCCCN(c2ccccc2)N1 |  |  | inhibition [7]: 8% |
| COc1cccc(N2CCCC(=O)N2)c1 | 6.7 µM |  |  |
| O=C1CCCN(c2ccccc2)N1c1ccccc1 |  | inactive |  |
